This is an account of results in BindingDB's records for doi:10.1021/jm00050a008 (University of North Carolina, 1995).

Each structure is given as a SMILES string.

The experiment in a line: The compound was tested for affinity towards sigma-3 receptor.
The IC50 is the point on the concentration scale where inhibition reaches its midpoint. A low value points to higher potency. As to `CCCN(C)C1Cc2ccccc2C(c2ccccc2)C1` (stereo not given), the IC50 was 4.5 nM.
For `CCCNC1Cc2ccccc2C(c2ccccc2)C1` (stereo not given), the 50% inhibitory concentration (IC50) was found to be 59 nM.
Under `CCCN(CCC)C1Cc2ccccc2C(c2ccccc2)C1` (stereo not given) stands 13 nM.
Under `CNC1Cc2ccccc2C(c2ccccc2)C1` (stereo not given) stands 79 nM.
Molecule `CCN(CC)C1Cc2ccccc2C(c2ccccc2)C1` (trans isomer) gave an IC50 of 2.2 nM.
